# According to patent US20170057995A1, “USE OF AROMATIC-CATIONIC PEPTIDES TO TREAT CHOLESTEROL-INDUCED MITOCHONDRIAL DYSFUNCTION” (CORNELL UNIVERSITY, priority 2013, published 2017):
# Where no end group is shown, it is not given here. [ ]: non-standard residue; d: D form.
# How the values were obtained:
# cytochrome c [1] = assay: Cytochrome c reduction by ascorbate (absorbance at 550 nm); format: biochemical; conditions: 100 μM chol-POPC liposomes, 20 μM cytochrome c, 50 μM vitamin C; peptide up to 300 μM
# Method: Liposomes were prepared as previously described in Melzak et al., Langmuir, 24: 9172-9180 (2008). Chol-POPC liposomes were prepared in a 1:1 molar ratio. Stock solutions were mixed and then dried under nitrogen from 30 minutes. After resuspension in 20 mM Hepes buffer pH 7.4, the liposomes were extruded 25 times through a 50 nm pore membrane (Avestin). 20 μM cytochrome c in Hepes buffer pH 7.4 was contacted with varying concentrations of chol-POPC liposomes and peptide. 50 μM ascorbate (vitamin C) was added after five minutes in order to promote the reduction the cytochrome c protein. The absorbance at 550 nm was then recorded in order to obtain the rate of the reaction after treatment with varying concentrations of peptide and cholesterol using a spectrophotometer (Spectramax Gemini XPS, Molecular Devices, Sunnyvale, Calif.). (See Basova et al., 2007).
# cytochrome c [2] = assay: Cytochrome c peroxidase activity (Amplex Red Peroxidase Kit); format: biochemical; conditions: for reduction in cytochrome c peroxidase activity compared to cytochrome c exposed to chol-POPC liposomes only: 300 μM chol-POPC liposomes, cytochrome c incubated with peptide first, peptide concentration not stated (FIG. 2 range 0-300 μM); for effect on cholesterol-induced cytochrome c peroxidase activity (FIG. 2): peptide 0 μM to 300 μM, 300 μM cholesterol
# Method: Cytochrome c peroxidase activity was measured using the Amplex Red Peroxidase Kit. Amplex Red reagent reacts with H2O2 in a 1:1 ratio in the presence of a peroxidase in order to create a highly fluorescent compound called resorufin, which has an excitation at 570 nm and an emission at 585 nm. 2 μM cytochrome c was incubated in 20 mM Hepes buffer pH 7.4 with varying concentrations of free cholesterol dissolved in ethanol or cholesterol-POPC liposomes (chol-POPC). 10 μM of H2O2 and 50 μM of Amplex Red reagent were subsequently added. The fluorescence was then measured using time course data collected from a Spectra Max 190 microplate spectrofluorometer (Molecular Devices, Sunnyvale, Calif.). Liposomes were prepared as previously described in Melzak et al., Langmuir, 24: 9172-9180 (2008). Chol-POPC liposomes were prepared in a 1:1 molar ratio. Stock solutions were mixed and then dried under nitrogen from 30 minutes. After resuspension in 20 mM Hepes buffer pH 7.4, the liposomes were extruded 25 times through a 50 nm pore membrane (Avestin).
# cytochrome c [3] = assay: Circular dichroism spectroscopy of cytochrome c (Soret region); conditions: 100 μM peptide; 40 μM chol-POPC liposomes; 10 mM cytochrome c
# Method: The circular dichroism (CD) spectra was collected using an AVIA 62 DS spectrophotometer. The CD spectra was analyzed between 375-450 nm in order to monitor the Soret region using a CD 10-mm path-length for cells containing 20 mM Hepes (pH 7.4) and […] cytochrome c in the presence or absence of 40 μM chol-POPC liposomes and/or 100 μM SS-31.
# Circular dichroism (Olis DSM20 spectropolarimeter) was carried out to analyze Soret region (375-450 nm), a probe for the attachment of the Met80 residue to the heme iron. The decreased intensity of the 416 nm Cotton effect (negative Cotton peak) is indicative of a perturbed heme pocket region, as the 416 nm dichroic band serves as a readout for the Met80-Fe(III) coordination in native cytochrome c. (Santucci et al., 1997). […] The CD spectra data comports with the findings of Examples 1 and 3 because the disruption of the Fe-Met80 coordination increases the exposure of the heme Fe to H2O2, thereby causing cytochrome c to switch from an electron carrier to a peroxidase.
# cytochrome c [4] = assay: Absorbance spectrum of cytochrome c (Soret band, 350-450 nm); conditions: 100 μM peptide
# Method: The effects of cholesterol and aromatic-cationic peptides on the structure of cytochrome c were analyzed using absorbance spectra (Pinherio et al., 1997). Wild-type cytochrome c typically has a peak at around 410 nm (which represents the Soret region) that may be affected by protein damage. Absorbance between 350-450 nm was analyzed using a Spectramax Gemini XPS spectrophotometer (Molecular Devices, Sunnyvale, Calif.).
# Cholesterol-induced structural alterations of cytochrome c were also analyzed using absorption spectroscopy. The absorbance spectrum between 350 and 450 nm was analyzed so as to monitor changes to the Soret band. A Soret band with a maximum intensity at 410 nm is indicative of the presence of both axial ligands (His18 and Met80 ligated to heme iron). (Pinherio et al., 1997).
Molecule,effect on cholesterol-induced impairment of cytochrome c reduction (FIG. 3B) (cytochrome c [1]),reduction in cytochrome c peroxidase activity compared to cytochrome c exposed to chol-POPC liposomes only (cytochrome c [2]) [%],effect on cholesterol-induced cytochrome c peroxidase activity (FIG. 2) (cytochrome c [2]; 2 μM cytochrome c),negative Cotton peak of cytochrome c incubated with chol-POPC liposomes (CD spectra) (cytochrome c [3]),intensity of the 410 nm absorbance peak of cytochrome c incubated with chol-POPC liposomes (cytochrome c [4]),"increase in cytochrome c peroxidase activity (cytochrome c [2]; 300 μM, 2 μM cytochrome c, 10 μM H2O2, 50 μM Amplex Red) [fold]"
"D-Arg-2′,6′-Dmt-Lys-Phe-NH2 [SS-31]",reversed,75,inhibit cholesterol-induced cytochrome c peroxidase activity in a dose-dependent manner,restores the negative Cotton peak,increases the intensity of the 410 nm peak,–
CC(C)CCC[C@@H](C)[C@H]1CC[C@H]2[C@@H]3CC=C4C[C@@H](O)CC[C@]4(C)[C@H]3CC[C@]12C [cholesterol],–,–,–,–,–,40
F[dR]FK-NH2 [SS-20],reversed,77,inhibit cholesterol-induced cytochrome c peroxidase activity in a dose-dependent manner,–,–,–
